# Test results from patent US7723066B1, “Processes for in vivo production of astaxanthin and phaffia rhodozyma yeast of enhanced astaxanthin content” (Igene Biotechnology, Inc., priority 1988, dated 2010).
# Read-outs that look alike come from different tables or passages of the source.
# Tests used:
# Type in all cases: cell-based, Phaffia rhodozyma
# [1] = tested on: P. rhodozyma; test: Inhibitors incorporated into yeast malt extract medium: killing, growth and colony colour; details: nicotine 1 mM, imidazole 4 mM, 2-methylimidazole 1 mM, morpholine 10 mM
# [2] = tested on: P. rhodozyma; test: as above; details: for killing of P. rhodozyma: incorporated into yeast malt extract medium agar; for influence on pigmentation of P. rhodozyma: YM plates or liquid growth media
# Source text: The inventors also tried treating P. rhodozyma with several inhibitors of electron transport including thenoyltrifluoroacetone (TTFA), antimycin A, and sodium cyanide.
# [3] = tested on: P. rhodozyma
# Source text: One of the selected progeny (IGI-887J0; see FIG. 2 and accompanying text) was characterized physiologically.
# Sensitivities of the mutants to various respiratory inhibitors including antimycin A, theonyltrifluoroacetine, sodium azide, hydrogen peroxide and sodium cyanide were examined. These inhibitors affect different regions of the respiratory chain.
# [4] = tested on: P. rhodozyma; test: Morphological selection on agent-containing medium, colonies assayed for pigment
# Source text: More specifically, the inventors have discovered that by subjecting a naturally occurring or mutated strain of P. rhodozyma to growth in the presence of a metabolic pathway inhibitor, particularly a main respiratory pathway inhibitor, in the presence of an influence such as an agent or environmental condition which triggers a secondary respiratory pathway, or morphological selection using a selecting agent, and particularly an antibiotic, a cytochrome B inhibitor, or a terpenoid synthetic pathway inhibitor as a selecting agent, a directed and specific selection of highly pigmented P. rhodazyma takes place. For example, plating of the pink yeast, P. rhodozyma, to agar containing an antibiotic, a cytochrome B inhibitor, or a terpenoid synthetic pathway inhibitor gave rise to colonies of unusual morphology characterized by a nonpigmented lower smooth surface that developed highly pigmented vertical papillae after 1 to 2 months.
# The sequence of mutations and selections with which the highest astaxanthin yielding strains to date have been produced is shown in FIG. 2. With reference to FIG. 2, the naturally occurring parent 67-385, obtained from the American Type Culture Collection ATCC No. 24230, was assayed as containing 200-600 μg/g dry weight of yeast in 6 day growth. 67-385 was subjected to antimycin selection, and higher pigmented progeny, referred to as 10′-887J0 were obtained. The first mutant papillus dissected from the basal colony contained approx. 700 μg total carotenoid/g yeast compared to the parental strain which had 300 to 400 μg/g. 10′-887J0 was assayed to have an astaxanthin content of 960 μg/g dry weight of yeast in 6 day growth. 10′-887J0 was replated to YM agar containing 50 μM antimycin and second generation antimycin colonies were selected. One of these produced 1200 μg/g and another produced 1450 μg/g. […]
# After harvest from 30 ml growth medium, the cells are washed in water and resuspended in 30 ml of water. The optical density is measured to determine growth. […]
compound,measurement,setting,value
Cc1ncc[nH]1 [2-methylimidazole],color of the colonies,[1],did visually change the color of the colonies
same,growth,[1],did not impair growth
CC(=O)N1CCN(c2ccc(OCC3COC(Cn4ccnc4)(c4ccc(Cl)cc4Cl)O3)cc2)CC1 (centres unmarked) [ketoconazole],killing of P. rhodozyma,[2],significant killing
"O=C(CC(=O)C(F)(F)F)c1cccs1 [TTFA, thenoyltrifluoroacetone]",influence on pigmentation of P. rhodozyma,[2],do not seem to significantly influence pigmentation
same,killing of naturally occurring P. rhodozyma by inhibitors of electron transport,[2]; naturally occurring P. rhodozyma,substantially killed by low concentrations
same,sensitivity of the antimycin mutants compared with parental strain,[3]; antimycin-isolated mutants,quite sensitive
same,sensitivity of mutant compared with natural isolate,[3]; strain IGI-887J0,increased sensitivities
CN1CCCC1c1cccnc1 (centres unmarked) [nicotine],color of the colonies,[1],did visually change the color of the colonies
same,growth,[1],did not impair growth
"[N-]=[N+]=[N-].[Na+] [azide, sodium azide]",killing of naturally occurring P. rhodozyma by inhibitors of electron transport,[2],relatively insensitive
same,sensitivity of mutant compared with natural isolate,[3],did not differ
same,sensitivity of the antimycin mutants compared with parental strain,[3],did not differ in sensitivity
OO [hydrogen peroxide],sensitivity of mutant compared with natural isolate,[3],more sensitive to killing
same,sensitivity of the antimycin mutants compared with parental strain,[3],quite sensitive
tunicamycin,pigment of resistant mutant,"[4]; 8 μg/ml tunicamycin resistant mutant of ATCC 24202, control 270 μg/g",610 µg/g
c1c[nH]cn1 [imidazole],color of the colonies,[2],did visually change the color of the colonies
same,growth,[2],did not impair growth
C[C@@]1(O)CCOC(=O)C1 [mevalonic acid lactone],pigment of resistant mutant,"[4]; 25 mM mevalonic acid lactone resistant mutant of NTG-mutagenized ATCC 24202, control 275 μg/g",540 µg/g
C1COCCN1 [morpholine],color of the colonies,[2],did visually change the color of the colonies
same,growth,[2],did not impair growth
C=C(C)[C@H]1Cc2c(ccc3c2O[C@@H]2COc4cc(OC)c(OC)cc4[C@@H]2C3=O)O1 [rotenone],influence on pigmentation of P. rhodozyma,[2],do not seem to significantly influence pigmentation
Clc1ccc(COC(Cn2ccnc2)c2ccc(Cl)cc2Cl)c(Cl)c1 (centres unmarked) [miconazole],killing of P. rhodozyma,[2],significant killing
C[C@@H]1[C@H](O)[C@@H](C)/C=C/C=C/CC/C=C/C=C/C=C/C=C/C(O[C@H]2O[C@H](C)[C@@H](O)[C@H](N)[C@@H]2O)CC2O[C@](O)(CC(O)C(O)CCC(O)CC(O)CC(O)CC(=O)O[C@H]1C)CC(O)C2C(=O)O (some centres unmarked) [nystatin],pigment of highest mutant,"[4]; mutant of ATCC 24202 from 3 and 5 μg/ml nystatin, control 270 μg/g",400 µg/g
